Source: patent US20240368133A1, “Compounds for the Treatment of Pain, in Particular, Neuropathic Pain, and/or Other Diseases or Disorders that are Associated with AT2R and/or AT2R Mediated Signaling” (Confo Therapeutics N.V., priority 2021, published 2024)

How the values were obtained:
[1] = biological target: human AT1R (Homo sapiens (Human), UniProt P30556); test: Counterscreen radioligand binding assay, displacement of 125I-[Sar1, Ile8]-Angiotensin II, hAT1R WT; conditions: for inhibition at 1 µM / inhibition at 10 µM: 125I-[Sar1, Ile8]-Ang II, semi-quantitative score; for inhibition at 1 µM: compound at 1 μM, read-out: % Displaced radioligand at 1 μM; for inhibition at 10 µM: compound at 10 μM, read-out: % Displaced radioligand at 10 μM; for IC50: HEK-293 cell membranes, read-out: Binding affinity On hAT1R IC50
How it was run: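 Compounds displaced 0.05 nM 125I-[Sar1, Ile8]-Ang II from human AT1R in HEK-293 membranes (1 h, 25° C; Tris/MgCl2/EDTA/BSA buffer, pH 7.4). Readout was filtration and scintillation counting, with non-specific binding set by 10 μM [Sar1]-Ang II. Values are % displacement at 1 μM and […], or IC50 from eight-point four-parameter fits.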

[2] = biological target: human AT2R fused to Cb23 (Homo sapiens, UniProt P50052); test: Radioligand binding assay, displacement of 125I-[Sar1, Ile8]-Angiotensin II, hAT2R Cb23; conditions: displacement of 125I-[Sar1, Ile8]-Angiotensin II, human AT2R fused to Cb23, HEK-293 cell membrane preparations; read-out: Binding affinity on hAT2R_Cb23 IC50
How it was run: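 Membranes from HEK-293 cells expressing human AT2R fused to Cb23 were incubated with 0.05 nM 125I-[Sar1, Ile8]-Angiotensin II in 100 μL buffer (50 mM Tris, 5 mM MgCl2, 1 mM EDTA, 0.1% BSA, pH 7.4) for one hour at 25° C. Ligands were tested as eight-point dose-response curves in duplicate, with C21 and Angiotensin II as references.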

Sequence of human AT2R fused to Cb23 (P50052 whole entry, looked up, the tested form may be a part): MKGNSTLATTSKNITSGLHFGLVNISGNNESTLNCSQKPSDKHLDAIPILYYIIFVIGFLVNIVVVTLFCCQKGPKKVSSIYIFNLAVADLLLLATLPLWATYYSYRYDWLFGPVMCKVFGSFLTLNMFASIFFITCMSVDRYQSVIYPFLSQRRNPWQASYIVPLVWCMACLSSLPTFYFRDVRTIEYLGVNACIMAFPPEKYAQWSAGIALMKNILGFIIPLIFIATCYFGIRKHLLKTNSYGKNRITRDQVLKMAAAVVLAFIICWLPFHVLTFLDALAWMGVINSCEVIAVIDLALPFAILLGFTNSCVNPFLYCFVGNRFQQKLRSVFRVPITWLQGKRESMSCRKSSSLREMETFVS
Sequence of human AT1R (P30556 whole entry): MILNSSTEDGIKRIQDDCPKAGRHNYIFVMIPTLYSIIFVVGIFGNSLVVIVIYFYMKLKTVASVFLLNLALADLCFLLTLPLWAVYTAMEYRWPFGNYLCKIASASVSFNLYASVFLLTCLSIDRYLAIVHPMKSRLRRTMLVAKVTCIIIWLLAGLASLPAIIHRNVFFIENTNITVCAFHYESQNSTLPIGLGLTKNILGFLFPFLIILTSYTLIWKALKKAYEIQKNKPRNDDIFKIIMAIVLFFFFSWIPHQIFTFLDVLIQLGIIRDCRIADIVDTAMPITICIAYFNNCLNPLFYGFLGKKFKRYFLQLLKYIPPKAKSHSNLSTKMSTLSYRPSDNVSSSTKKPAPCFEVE

Row | Compound | inhibition at 1 µM [1] | inhibition at 10 µM [1] | IC50 [1] | IC50 [2]
1 | CCS(=O)(=O)NC(=O)c1ccc(OC(C)C)cc1N1CCN(Cc2nc3ccccc3s2)CC1 [Compound A-40, 2-[4-(1,3-benzothiazol-2-ylmethyl)piperazin-1-yl]-N-ethylsulfonyl-4-isopropoxy-benzamide] | < 30% | < 30% | 36.6 µM | 5.87 µM
2 | CCS(=O)(=O)NC(=O)c1ccc(OC2CC2)cc1N1CCN(Cc2nc3ccccc3s2)CC1 [Compound A-41, 2-[4-(1,3-benzothiazol-2-ylmethyl)piperazin-1-yl]-4-(cyclopropoxy)-N-ethylsulfonyl-benzamide] | < 30% | 30 to 50% | 16.5 µM | 2.54 µM
3 | CCCOc1ccc(C(=O)NS(=O)(=O)CC)c(N2CCN(Cc3nc4ccccc4s3)CC2)c1 [Compound A-42, 2-[4-(1,3-benzothiazol-2-ylmethyl)piperazin-1-yl]-N-ethylsulfonyl-4-propoxy-benzamide] | < 30% | 30 to 50% | 26.3 µM | 17.7 µM
4 | CCS(=O)(=O)NC(=O)c1ccc(OCC(C)C)cc1N1CCN(Cc2nc3ccccc3s2)CC1 [Compound A-43, 2-[4-(1,3-benzothiazol-2-ylmethyl)piperazin-1-yl]-N-ethylsulfonyl-4-isobutoxy-benzamide] | < 30% | 30 to 50% | – | 4.38 µM
5 | CCNc1ccc(C(=O)NS(=O)(=O)CC)c(N2CCN(Cc3nc4ccccc4s3)CC2)c1 [Compound A-44, 2-[4-(1,3-benzo-thiazol-2-ylmethyl)-piperazin-1-yl]-4-(ethylamino)-N-ethylsulfonyl-benz-amide] | < 30% | < 30% | 34.9 µM | 7.18 µM
6 | CC(C)Cc1ccc(-c2nn[nH]n2)c(N2CCN(c3nc4ccccc4s3)CC2)c1 [Compound A-49, 2-[4-[5-isobutyl-2-(2H-tetrazol-5-yl)-phenyl]piperazin-1-yl]-1,3-benzo-thiazole] | < 30% | 30 to 50% | 20.3 µM | 2.34 µM
7 | CC(C)Oc1ccc(-c2nn[nH]n2)c(CN2CCN(c3nc4ccccc4s3)CC2)c1 [Compound A-50, 2-[4-[[5-isoprop-oxy-2-(2H-tetrazol-5-yl)phenyl]meth-yl]piperazin-1-yl]-1,3-benzothiazole] | < 30% | – | 28.8 µM | 10.5 µM
8 | CC(C)COc1ccc(-c2nn[nH]n2)c(N2CCN(Cc3nc4ccccc4s3)CC2)c1 [Compound A-53, 2-[[4-[5-isobutoxy-2-(2H-tetrazol-5-yl)phenyl]piperazin-1-yl]methyl]-1,3-benzothiazole] | < 30% | < 30% | 45.6 µM | 7.6 µM
9 | FC(F)COc1ccc(-c2nn[nH]n2)c(N2CCN(Cc3nc4ccccc4s3)CC2)c1 [Compound A-55, 2-[[4-[5-(2,2-difluoroethoxy)-2-(2H-tetrazol-5-yl)-phenyl]piperazin-1-yl]methyl]-1,3-benzothiazole] | < 30% | < 30% | 39.7 µM | 2.27 µM
10 | c1ccc2sc(CN3CCN(c4cc(OC5CCCC5)ccc4-c4nn[nH]n4)CC3)nc2c1 [Compound A-57, 2-[[4-[5-(cyclo-pentoxy)-2-(2H-tetrazol-5-yl)-phenyl]piperazin-1-yl]methyl]-1,3-benzothiazole] | < 30% | < 30% | 34.5 µM | 1.9 µM
11 | COC1CC(Nc2ccc(-c3nn[nH]n3)c(N3CCN(Cc4nc5ccccc5s4)CC3)c2)C1 (stereo not shown) [Compound A-68, 3-[4-(1,3-benzo-thiazol-2-ylmethyl)-piperazin-1-yl]-N-(3-methoxycyclo-butyl)-4-(2H-tetrazol-5-yl)aniline] | < 30% | < 30% | – | 8.5 µM
12 | CC(C)Cc1ccc(-c2nn[nH]n2)c(N2CCN(Cc3nc(=O)c4cnn(C)c4[nH]3)CC2)c1 [Compound A-69, 6-[[4-[5-isobutyl-2-(2H-tetrazol-5-yl)-phenyl]piperazin-1-yl]methyl]-1-methyl-7H-pyr-azolo[3,4-d]pyrimi-din-4-one] | < 30% | < 30% | – | 10.6 µM
13 | Cc1ccc2nc(CN3CCN(c4cc(CC(C)C)ccc4-c4nn[nH]n4)CC3)cc(=O)n2c1 [Compound A-70, 2-[[4-[5-isobutyl-2-(2H-tetrazol-5-yl)-phenyl]piperazin-1-yl]methyl]-7-methyl-pyrido[1,2-a]pyrimidin-4-one] | < 30% | < 30% | 61.2 µM | 1.8 µM
14 | Cc1ccn2c(=O)cc(CN3CCN(c4cc(CC(C)C)ccc4-c4nn[nH]n4)CC3)nc2c1 [Compound A-72, 2-[[4-[5-isobutyl-2-(2H-tetrazol-5-yl)phenyl]piperazin-1-yl]methyl]-8-methyl-pyrido[1,2-a]pyrimidin-4-one] | < 30% | < 30% | – | 8.39 µM
15 | Cc1cccc2nc(CN3CCN(c4cc(CC(C)C)ccc4-c4nn[nH]n4)CC3)cc(=O)n12 [Compound A-73, 2-[[4-[5-isobutyl-2-(2H-tetrazol-5-yl)-phenyl]piperazin-1-yl]methyl]-6-methyl-pyrido[1,2-a]pyrimidin-4-one-] | < 30% | < 30% | – | 4.3 µM
16 | Cc1csc2nc(CN3CCN(c4cc(CC(C)C)ccc4-c4nn[nH]n4)CC3)cc(=O)n12 [Compound A-75, 7-[[4-[5-isobutyl-2-(2H-tetrazol-5-yl)phenyl]piperazin-1-yl]methyl]-3-methyl-thiazolo[3,2-a]pyrimidin-5-one] | < 30% | < 30% | – | 5.92 µM

The next lines start with the values.

Row | inhibition at 1 µM [1] | inhibition at 10 µM [1] | IC50 [1] | IC50 [2] | Compound
17 | < 30% | < 30% | 30 µM | 2.54 µM | CCc1ccc(-c2nn[nH]n2)c(N2CCN(Cc3nc4ccccc4s3)CC2)c1 [Compound A-45, 2-[[4-[5-ethyl-2-(2H-tetrazol-5-yl)-phenyl]piperazin-1-yl]methyl]-1,3-benzothiazole]
18 | < 30% | < 30% | – | 1.79 µM | CC(C)c1ccc(-c2nn[nH]n2)c(N2CCN(Cc3nc4ccccc4s3)CC2)c1 [Compound A-46]
19 | < 30% | < 30% | – | 1.07 µM | c1ccc2sc(CN3CCN(c4cc(C5CC5)ccc4-c4nn[nH]n4)CC3)nc2c1 [Compound A-47, 2-[[4-[5-cycloprop-yl-2-(2H-tetrazol-5-yl)phenyl]piperazin-1-yl]methyl]-1,3-benzothiazole]
20 | < 30% | < 30% | – | 4.42 µM | c1ccc2sc(CN3CCN(c4cc(OC5CC5)ccc4-c4nn[nH]n4)CC3)nc2c1 [Compound A-52, 2-[[4-[5-(cyclopropoxy)-2-(2H-tetrazol-5-yl)phenyl]piperazin-1-yl]methyl]-1,3-benzothiazole]
21 | < 30% | < 30% | 31 µM | 2.07 µM | c1ccc2sc(CN3CCN(c4cc(OCC5CC5)ccc4-c4nn[nH]n4)CC3)nc2c1 [Compound A-54, 2-[[4-[5-(cyclo-propylmethoxy)-2-(2H-tetrazol-5-yl)-phenyl]piperazin-1-yl]methyl]-1,3-benzothiazole]
22 | < 30% | < 30% | – | 4.75 µM | CCNc1ccc(-c2nn[nH]n2)c(N2CCN(Cc3nc4ccccc4s3)CC2)c1 [Compound A-59, 3-[4-(1,3-benzothi-azol-2-ylmethyl)-piperazin-1-yl]-N-ethyl-4-(2H-tetrazol-5-yl)aniline]
23 | < 30% | < 30% | – | 3.46 µM | CC(C)Nc1ccc(-c2nn[nH]n2)c(N2CCN(Cc3nc4ccccc4s3)CC2)c1 [Compound A-60, 3-[4-(1,3-benzothiazol-2-ylmethyl)piperazin-1-yl]-N-isopropyl-4-(2H-tetrazol-5-yl)aniline]
24 | < 30% | < 30% | 39.7 µM | 1.56 µM | c1ccc2sc(CN3CCN(c4cc(NC5CCCC5)ccc4-c4nn[nH]n4)CC3)nc2c1 [Compound A-64, 3-[4-(1,3-benzothi-azol-2-ylmethyl)-piperazin-1-yl]-N-cyclopentyl-4-(2H-tetrazol-5-yl)aniline]
25 | < 30% | < 30% | 60.8 µM | 1.85 µM | c1ccc2sc(CN3CCN(c4cc(N5CCCCC5)ccc4-c4nn[nH]n4)CC3)nc2c1 [Compound A-65, 2-((4-(5-(piperidin-1-yl)-2-(2H-tetrazol-5-yl)phenyl)piperazin-1-yl)methyl) benzo[d]thiazole]
26 | < 30% | < 30% | – | 7.11 µM | c1ccc2sc(CN3CCN(c4cc(N5CCOCC5)ccc4-c4nn[nH]n4)CC3)nc2c1 [Compound A-67, 4-[3-[4-(1,3-benzo-thiazol-2-ylmethyl)-piperazin-1-yl]-4-(2H-tetrazol-5-yl)-phenyl]morpholine]
